Measured values reported in PubChem BioAssay AID1963431 (Molecular Pharmacology Branch, DTP, NCI, 2024).

System: Rh18 complex spheroid viability, percent test/control
Experiment: Anticancer human tumor Rh18 cell line growth inhibition [Asc];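 also: spheroids exposed to compound for 7 days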;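 as to viability, T/C: 100% = DMSO vehicle control wells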
Conditions: for IC50: curve of first compound; for viability, T/C: stronger effect = lower value
How it was run: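 Concentration series start at each agent's clinical Cmax, or at 10 microM when none is established, and drop in half-log steps; agents are applied alone or together to complex spheroids built with HUVEC and hMSC.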

[1] = second compound 0.03 µM, first compound 0.0316 µM
[2] = second compound 0.03 µM, first compound 0.1 µM
[3] = second compound 0.03 µM, first compound 0.316 µM
[4] = second compound 0.03 µM, first compound 1 µM
[5] = second compound 0.03 µM, first compound 3.16 µM
[6] = second compound 0.03 µM, first compound 10 µM
[7] = second compound 0.0949 µM, first compound 0.0316 µM
[8] = second compound 0.0949 µM, first compound 0.1 µM
[9] = second compound 0.0949 µM, first compound 0.316 µM
[10] = second compound 0.0949 µM, first compound 1 µM
[11] = second compound 0.0949 µM, first compound 3.16 µM
[12] = second compound 0.0949 µM, first compound 10 µM
[13] = second compound 0.3 µM, first compound 0.0316 µM
[14] = second compound 0.3 µM, first compound 0.1 µM
[15] = second compound 0.3 µM, first compound 0.316 µM
[16] = second compound 0.3 µM, first compound 1 µM
[17] = second compound 0.3 µM, first compound 3.16 µM
[18] = second compound 0.3 µM, first compound 10 µM
[19] = second compound 0.949 µM, first compound 0.0316 µM
[20] = second compound 0.949 µM, first compound 0.1 µM
[21] = second compound 0.949 µM, first compound 0.316 µM
[22] = second compound 0.949 µM, first compound 1 µM
[23] = second compound 0.949 µM, first compound 3.16 µM
[24] = second compound 0.949 µM, first compound 10 µM
[25] = second compound 3 µM, first compound 0.0316 µM
[26] = second compound 3 µM, first compound 0.1 µM
[27] = second compound 3 µM, first compound 0.316 µM
[28] = second compound 3 µM, first compound 1 µM
[29] = second compound 3 µM, first compound 3.16 µM
[30] = second compound 3 µM, first compound 10 µM
[31] = second compound 0.03 µM, first compound 0.00316 µM
[32] = second compound 0.03 µM, first compound 0.01 µM
[33] = second compound 0.0949 µM, first compound 0.00316 µM
[34] = second compound 0.0949 µM, first compound 0.01 µM
[35] = second compound 0.3 µM, first compound 0.00316 µM
[36] = second compound 0.3 µM, first compound 0.01 µM
[37] = second compound 0.949 µM, first compound 0.00316 µM
[38] = second compound 0.949 µM, first compound 0.01 µM
[39] = second compound 3 µM, first compound 0.00316 µM
[40] = second compound 3 µM, first compound 0.01 µM

Row | Compound | IC50 (second compound 0.03 µM) [nM] | IC50 (second compound 0.0949 µM) [nM] | IC50 (second compound 0.3 µM) [nM] | IC50 (second compound 0.949 µM) [nM] | IC50 (second compound 3 µM) [nM] | viability, T/C [1] [%] | viability, T/C [2] [%] | viability, T/C [3] [%] | viability, T/C [4] [%] | viability, T/C [7] [%] | viability, T/C [8] [%] | viability, T/C [9] [%] | viability, T/C [10] [%] | viability, T/C [13] [%] | viability, T/C [14] [%] | viability, T/C [15] [%] | viability, T/C [16] [%] | viability, T/C [19] [%] | viability, T/C [20] [%] | viability, T/C [21] [%] | further results
1 | C#Cc1c(F)ccc2cc(O)cc(-c3ncc4c(N5CC6CCC(C5)N6)nc(OCC56CCCN5CC(F)C6)nc4c3F)c12 (stereo not given) + CCN1C(C(=O)NC23CCC(C(=O)O)(CC2)CC3)C(c2cccc(Cl)c2F)C2(C(=O)Nc3cc(Cl)ccc32)C12CCCCC2 | < 31.6 | < 31.6 | < 31.6 | < 31.6 | < 31.6 | 42.7 | 45.1 | 43.9 | 40.4 | 25.1 | 24.1 | 22.1 | 28.2 | 13.1 | 13.9 | 14.4 | 12.6 | 11.7 | 12.7 | 11 | viability, T/C [5]: 41.8%; viability, T/C [6]: 46.6%; viability, T/C [11]: 23.6%; viability, T/C [12]: 25.3%; viability, T/C [17]: 15.6%; viability, T/C [18]: 13.7%; viability, T/C [22]: 12.4%; viability, T/C [23]: 12.3%; viability, T/C [24]: 10.5%; viability, T/C [25]: 8.99%; viability, T/C [26]: 12.6%; viability, T/C [27]: 12.4%; viability, T/C [28]: 11.5%; viability, T/C [29]: 8.93%; viability, T/C [30]: 11.6%
2 | C=C(F)C(=O)N1CCN(c2nc(OCC3CCCN3C)nc3c2CCN(c2cccc4cccc(Cl)c24)C3)CC1CC#N (stereo not given) + CCN1C(C(=O)NC23CCC(C(=O)O)(CC2)CC3)C(c2cccc(Cl)c2F)C2(C(=O)Nc3cc(Cl)ccc32)C12CCCCC2 | < 31.6 | < 31.6 | < 31.6 | < 31.6 | < 31.6 | 25.2 | 28.7 | 35.2 | 32.9 | 19.6 | 20.5 | 17.7 | 18.5 | 10.7 | 10.4 | 9.23 | 7.64 | 8.48 | 8.88 | 8.35 | viability, T/C [5]: 31.6%; viability, T/C [6]: 0.2%; viability, T/C [11]: 7.46%; viability, T/C [12]: 0.15%; viability, T/C [17]: 3.23%; viability, T/C [18]: 0.14%; viability, T/C [22]: 6.27%; viability, T/C [23]: 2.4%; viability, T/C [24]: 0.14%; viability, T/C [25]: 7.28%; viability, T/C [26]: 7.78%; viability, T/C [27]: 8.39%; viability, T/C [28]: 5.04%; viability, T/C [29]: 2.37%; viability, T/C [30]: 0.17%

Second part, led by results:

Row | IC50 (second compound 0.03 µM) [nM] | IC50 (second compound 0.0949 µM) [nM] | IC50 (second compound 0.3 µM) [nM] | IC50 (second compound 0.949 µM) [nM] | IC50 (second compound 3 µM) [nM] | Compound | viability, T/C [1] [%] | viability, T/C [2] [%] | viability, T/C [3] [%] | viability, T/C [4] [%] | viability, T/C [7] [%] | viability, T/C [8] [%] | viability, T/C [9] [%] | viability, T/C [10] [%] | viability, T/C [13] [%] | viability, T/C [14] [%] | viability, T/C [15] [%] | viability, T/C [16] [%] | viability, T/C [19] [%] | viability, T/C [20] [%] | viability, T/C [21] [%] | further results
3 | < 31.6 | < 31.6 | < 31.6 | < 31.6 | < 31.6 | C=CC(=O)N1CCN(c2nc(=O)n(-c3c(C)ccnc3C(C)C)c3nc(-c4c(O)cccc4F)c(F)cc23)C(C)C1 (stereo not given) + CCN1C(C(=O)NC23CCC(C(=O)O)(CC2)CC3)C(c2cccc(Cl)c2F)C2(C(=O)Nc3cc(Cl)ccc32)C12CCCCC2 | 37.6 | 36.2 | 46.5 | 46.7 | 23.6 | 19.3 | 24.4 | 23.5 | 13.3 | 13.7 | 15 | 12.9 | 9.37 | 9.94 | 11.2 | viability, T/C [5]: 58.2%; viability, T/C [6]: 60.7%; viability, T/C [11]: 30.1%; viability, T/C [12]: 25.4%; viability, T/C [17]: 15.6%; viability, T/C [18]: 16%; viability, T/C [22]: 9.73%; viability, T/C [23]: 14.4%; viability, T/C [24]: 12.8%; viability, T/C [25]: 9.88%; viability, T/C [26]: 10%; viability, T/C [27]: 9.57%; viability, T/C [28]: 11.9%; viability, T/C [29]: 13.1%; viability, T/C [30]: 14.1%
4 | < 3.16 | < 3.16 | < 3.16 | < 3.16 | < 3.16 | CNC(C)C(=O)NC1CN(S(=O)(=O)c2cccc(S(=O)(=O)N3CCC4CCC(C(=O)NC(c5ccccc5)c5ccccc5)N4C(=O)C(NC(=O)C(C)NC)C3)c2)CCC2CCC(C(=O)NC(c3ccccc3)c3ccccc3)N2C1=O (stereo not given) + CCN1C(C(=O)NC23CCC(C(=O)O)(CC2)CC3)C(c2cccc(Cl)c2F)C2(C(=O)Nc3cc(Cl)ccc32)C12CCCCC2 | 23.9 | 18.8 | 19.3 | 17.5 | 16.2 | 16.8 | 13.7 | 16.5 | 14.3 | 12.4 | 8.81 | 10.8 | 10.5 | 9.19 | 9.26 | viability, T/C [31]: 30.1%; viability, T/C [32]: 27.8%; viability, T/C [33]: 16.2%; viability, T/C [34]: 19.3%; viability, T/C [35]: 13.8%; viability, T/C [36]: 11%; viability, T/C [37]: 10.8%; viability, T/C [38]: 10%; viability, T/C [22]: 10.8%; viability, T/C [39]: 10.8%; viability, T/C [40]: 8.24%; viability, T/C [25]: 9.03%; viability, T/C [26]: 9.34%; viability, T/C [27]: 11.1%; viability, T/C [28]: 10.5%
5 | < 3.16 | < 3.16 | < 3.16 | < 3.16 | < 3.16 | COc1c(OCCCN2CCOCC2)ccc2c3n(c(=NC(=O)c4cnc(N)nc4)nc12)CCN3 + CCN1C(C(=O)NC23CCC(C(=O)O)(CC2)CC3)C(c2cccc(Cl)c2F)C2(C(=O)Nc3cc(Cl)ccc32)C12CCCCC2 | 15.1 | 6.81 | 3.01 | 0.78 | 9.67 | 4.3 | 1.95 | 0.74 | 6.7 | 3.81 | 1.38 | 0.96 | 5.17 | 2.9 | 1.19 | viability, T/C [31]: 36.4%; viability, T/C [32]: 27.2%; viability, T/C [33]: 17.8%; viability, T/C [34]: 16.1%; viability, T/C [35]: 11%; viability, T/C [36]: 11%; viability, T/C [37]: 10.3%; viability, T/C [38]: 9.29%; viability, T/C [22]: 0.83%; viability, T/C [39]: 10.2%; viability, T/C [40]: 8.55%; viability, T/C [25]: 7.12%; viability, T/C [26]: 3.01%; viability, T/C [27]: 3.28%; viability, T/C [28]: 1.16%
